Reference: US11219670B2, “Targeting CAPN9/CAPNS2 activity as a therapeutic strategy for the treatment of myofibroblast differentiation and associated pathologies” (The Johns Hopkins University, priority 2014, dated 2022)
Where a SMILES comes first, the peptide text is derived from it. The star is where a group is joined. Cbz = O=C(OCc1ccccc1)*; Boc = CC(C)(C)OC(=O)*

T1: Human recombinant mini-CAPN9 (Homo sapiens, UniProt O14815)
T1 construct: made in house; host or cells: E. coli
T1 sequence (O14815 42-337 limits assumed): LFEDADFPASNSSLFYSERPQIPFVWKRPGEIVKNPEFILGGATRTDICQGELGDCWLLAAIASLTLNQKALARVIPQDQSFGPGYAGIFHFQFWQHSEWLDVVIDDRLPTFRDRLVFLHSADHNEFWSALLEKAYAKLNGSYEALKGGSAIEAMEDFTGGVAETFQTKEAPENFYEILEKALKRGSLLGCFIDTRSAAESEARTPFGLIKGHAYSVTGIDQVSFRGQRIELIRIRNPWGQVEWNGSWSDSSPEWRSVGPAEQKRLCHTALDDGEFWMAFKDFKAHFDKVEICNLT

B1: calpastatin: endogenous calpain inhibitor, mouse calpastatin overexpressed from a bicistronic vector with GFP (protein, UniProt P51125 1-788, looked up)
Calpastatin: MSQPGPKPAASPRPSRGAAARHTQEHVNEKNIGSSSKPGEKKGSDEKKAASLGSSQPSRPHVGEAATATKVTASSAATSKSPSMSTTETKAIPVNKQLEGPDQKRPREQAVKTESKKPQSSEQPVVHEKKSKGGPKEGSEPKNLPKHTSSTGSKHAHKEKALSRSNEQMVSEKPSESKTKFQDVPSAGGESVAGGGTVATALDKVVGKKKEQKPFTPASPVQSTPSKPSDKSGMDAALDDLIDTLGGHEDTNRDDPPYTGPVVLDPMYSTYLEALGIKEGTIPPEYRKLLEKNEGITQPLPDSPKPMGTDQAIDALSSDFTCSSPTGKQSEKEKSTGEIFKAQSAGVTRSSVPPKEKKRKVEEEVINDQALQALSDSLGTRQPDPPSHVSQAEQVKEAKAKEERQEKCGEDEDTVPAEYRLKPAKDKDGKPLLPEPEETSKSLSESELIGELSADFDRSTYQDKPSTPAEKKSNDTSQTPPGETVPRASMCSIRSAPPKLASLKGVVPEDAVETLAGSLGTREADPEHEKTVEDKVKEKAKEEEHEKLGEKEETVPPDYRLEEVKDKDGKPLLPKESQEQLAPLSDDFLLDALSQDFSSPANISSLEFEDAKLSAAISEVVSQTPAPSTHAAAPLPGTEQKDKELDDALDELSDSLGQRPPDPDENKPLDDKVKEKIKPEHSEKLGERDDTIPPEYRHLLDNDGKDKPEKPPTKKTEKPDQDRDPIDALSEDLDSCPSTTETSKNTAKGKSKKTSSSKASKDGEKTKDSSKKTEEVSKPKAKEDARHS
modifications: co-expressed with GFP

Key:
[1] = system: phosphorylation of SMAD2; assay: TGFβ-induced phosphorylation of SMAD2 in NMuMG cells (western blot); format: cell-based, Mouse
Protocol: (§1) (FIG. 1B; Levels were normalized to the 72 h TGFβ1 only treated sample for each blot. Students t-test *p<0.05, **p<0.01, † p<0.005, †† p<0.001). […] (FIG. 1H; Levels were normalized to the 72 h TGFβ1 only treated sample for each blot. Students t-test *p<0.05, **p<0.01, † p<0.005, †† p<0.001).

[2] = system: calpain activity (cleavage of Filamin A); assay: TGFβ-induced calpain activity in NMuMG cells (cleavage of Filamin A, western blot); format: cell-based, Mouse
Protocol: as §1

[3] = system: Primary Normal Human Lung Fibroblasts (NHLF); assay: TGFβ1-induced FMT in NHLF cells (αSMA western blot); format: cell-based
Description: Resident fibroblasts have also been described to undergo transformation in the presence of high TGFβ. Using Primary Normal Human Lung Fibroblasts (NHLF), it was shown that treatment with calpain inhibitor MDL-28170 (FIG. 8A and FIG. 8B) or siRNA mediated knockdown of CAPNS2 (FIG. 8C) can inhibit TGFβ1-induced FMT as measured by αSMA.

[4] = system: NMuMG cells; assay: TGFβ1-induced EpMT in NMuMG cells (αSMA western blot, qPCR, immunofluorescence); format: cell-based, Mouse; conditions: western blot
Protocol: (FIG. 1B; Levels were normalized to the 72 h TGFβ1 only treated sample for each blot. Students t-test *p<0.05, **p<0.01, † p<0.005, †† p<0.001). […] (FIG. 1H; Levels were normalized to the 72 h TGFβ1 only treated sample for each blot. Students t-test *p<0.05, **p<0.01, † p<0.005, †† p<0.001). FIG. 1G and FIG. 1H show the small molecule […] SB431542 suppressed TGFβ-induced calpain activity (as measured by cleavage of Filamin A, a known calpain substrate) and TGFβ-induced phosphorylation of SMAD2, as measured by western blot (FIG. 1H) and quantified western blot data done in biological replicates (FIG. 1H; Levels were normalized to the 72 h TGFβ1 only treated sample for each blot. Student's t-test *p<0.05, **p<0.01, † p<0.005, †† p<0.001).). […] NMuMG cells pretreated with TGFβ1 for 72 hours to induce EMT, and then treated with calpain inhibitor MDL-28170 while in the continued presence of TGFβ1 for an additional 48 h or 72 h post-induction, can revert to a more epithelial phenotype as assessed by αSMA expression by western blot (FIG. 1I) and quantified western blot data done in biological replicates (FIG. 1J; Levels were normalized to TGFβ1 only treated samples within each time point. Students t-test *p<0.05).
Calpain inhibition was also found to suppress TGFβ-induced expression of genes commonly and functionally associated with fibrosis, such as collagen 1A1, vimentin and matrix metalloproteinase 2/9 (FIG. 1C). A profound decrease in E-cadherin, a cell surface protein highly expressed by epithelial cells, was observed by immunofluorescence upon stimulation with TGFβ but was prevented by treatment with calpain inhibitor MDL-28170 (FIG. 1D). […] (FIG. 1F). […]

[5] = molecular target: T1, Human recombinant mini-CAPN9; assay: Biochemical assay for calpain 9 inhibition (FRET peptide substrate, FLIPR); conditions: IC50 by 4 parameter logistic fitting; 10 min preincubation; ambient temperature
Protocol: Human recombinant mini-CAPN9 was expressed in E. coli and purified as described in Davis, T. L., et al. (2007) J Mol Biol 366(1): 216-229.
All enzyme reactions are run at ambient temperature (˜25° C.) in black 384 well assay plates. Inhibitors solutions in DMSO are typically semi-log serially diluted prior to further dilution in assay buffer (Tris-HCl 20 mM, KCl 100 mM, BSA 0.1%, 1 mM DTT). Calpain enzyme stocks are diluted in assay buffer without Ca (II) just prior to use (1 μM) and incubated with serially diluted test compounds at 2× concentrations in the assay plate for 10 min.
After the compound preincubation, the FLIPR liquid handler is used to initiate the reaction by adding a 2× mix of substrate (1 μM Calpain FRET peptide substrate (5-FAM/QXL 520) Anaspec (Catalog# AS-72149)) and Ca (II) (10 mM). Reactions are measured using a FLIPR Tetra reader (Molecular Devices Inc).
Slopes (reaction rates) are calculated within the 0-2 min interval using the ScreenWorks software (Molecular Devices Inc). Slopes are plotted versus test compound concentration to obtain dose-response curves. IC50 values are obtained using 4 parameter logistic fitting.

[6] = system: PAVEC; assay: TGFβ1-induced EnMT in PAVEC (qPCR, immunofluorescence); format: cell-based
Description: (FIG. 7B; E-cadherin shown in green, vimentin shown in red, DAPI nuclear marker shown in blue. Scale bar=100 μm). […] Scale bar=100 μm);
Myofibroblasts can derive from cell types other than those of epithelial origin, including endothelial cells and fibroblasts. […] (FIG. 7B). Overexpression of calpastatin inhibits TGFβ1-induced EnMT in PAVEC as measured from gene expression of αSMA, vimentin, E-cadherin, MMP2 and MMP9 (FIG. 7C) and inhibits morphological changes associated with EnMT, such as downregulation of E-cadherin/cell-cell adhesion and upregulation of vimentin. (FIG. 7D).

| Molecule | TGFβ-induced phosphorylation of SMAD2 [1] | TGFβ-induced calpain activity (cleavage of Filamin A) [2] | TGFβ1-induced EpMT as measured by αSMA expression [4] | IC50 [5] | other results |
| --- | --- | --- | --- | --- | --- |
| NS8593 | without significantly affecting | suppressed | able to potently inhibit | – | TGFβ1-induced FMT as measured by αSMA [3]: able to suppress |
| CCC(C)[C@H](NS(=O)(=O)c1cccc2ccccc12)C(=O)N[C@H](C=O)Cc1c[nH]c2ccccc12 (stereo partly drawn) [NapSul-Ile-Trp-CHO] | – | – | – | 6.25 µM | – |
| C=CC[C@@H]1/C=C(\C)C[C@H](C)C[C@H](OC)[C@H]2O[C@@](O)(C(=O)C(=O)N3CCCC[C@H]3C(=O)O[C@H](/C(C)=C/[C@@H]3CC[C@@H](O)[C@H](OC)C3)[C@H](C)[C@@H](O)CC1=O)[C@H](C)C[C@@H]2OC [FK506, tacrolimus] | – | – | able to potently suppress | – | – |
| CC(C)CCNC(=O)[C@H](CC(C)C)NC(=O)[C@H]1O[C@@H]1C(=O)O [E-64-C] | – | – | – | 35.8 µM | – |
| CC(=O)N[C@@H](CC(C)C)C(=O)N[C@@H](CC(C)C)C(=O)N[C@H](C=O)CCCNC(=N)N [Leupeptin Hemisulfate] | – | – | – | 9.24 µM | – |
| NC(=O)c1ccc(-c2nc(-c3ccc4c(c3)OCO4)c(-c3ccccn3)[nH]2)cc1 [SB431542] | did not show | did not show | did not show | – | – |
| CC(C)C[C@H](NC(=O)[C@H]1O[C@@H]1C(=O)O)C(=O)NCCCCNC(=N)N [E-64] | – | – | – | 11.6 µM | – |
| CCCC[C@@H](C=O)NC(=O)[C@H](CC(C)C)NC(=O)OCc1ccccc1 [Calpeptin] | without significantly affecting | suppressed | suppresses | 2.84 µM | – |
| O=C1Nc2ccc([N+](=O)[O-])cc2C1=O [5-Nitroisatin] | – | – | – | 42.3 µM | – |
| CC(C)C[C@@H](C=O)NC(=O)[C@@H](NS(=O)(=O)c1ccc(F)cc1)C(C)C [Calpain Inhibitor IV SJA-6017] | – | – | – | 2.23 µM | – |
| CSCC[C@@H](C=O)NC(=O)[C@H](CC(C)C)NC(=O)[C@H](CC(C)C)NC(C)=O [Calpain Inhibitor II (ALLM)] (Ac-Leu-Leu-Met-aldehyde) | – | – | – | 3.32 µM | – |
| CC(C)[C@H](NC(=O)CNC(=O)OC(C)(C)C)C(=O)N[C@H](C=O)C(C)C [Boc-Gly-Val-Val-CHO] (Boc-Gly-Val-Val-aldehyde) | – | – | – | 6.68 µM | – |
| NCCOB(c1ccccc1)c1ccccc1 [2-APB, 2-aminoethoxydiphenyl borate] | without significantly affecting | suppressed | able to inhibit TGFβ1-induced αSMA expression at high doses | – | – |
| CC(C)C[C@@H](C=O)NC(=O)[C@H](CC(C)C)NC(=O)OCc1ccccc1 [Z-Leu-Leu-CHO] | – | – | – | 2.35 µM | – |
| CC(C)C[C@@H](C=O)NC(=O)[C@H](CC(C)C)NC(=O)[C@H](CC(C)C)NC(=O)OCc1ccccc1 [MG-132] (Cbz-Leu-Leu-Leu-aldehyde) | – | – | – | 9.88 µM | – |
| B1 | without affecting | suppressed | virtually no αSMA protein | – | morphological changes associated with EnMT (downregulation of E-cadherin/cell-cell adhesion, upregulation of vimentin) ([6]; immunofluorescence): inhibits; TGFβ1-induced EnMT as measured from gene expression of αSMA, vimentin, E-cadherin, MMP2 and MMP9 ([6]; quantitative PCR): inhibits |
